Where “and” joins values, the source holds several entries; their conditions need not be identical. Identical values can stand only once. Inconclusive results and toxic doses are left out. The calls were made as follows: active = survival T/C of 150% or more; inactive = T/C below 125% in these data.
Tested on: BDF1 mice, B16 melanoma ip, median survival T/C
Experiment: NCI In Vivo Anticancer Drug Screen. Data for tumor model B16 Melanoma (intraperitoneal) in B6D2F1 (BDF1) mice
Settings: endpoint: median survival time, higher = longer survival
Summary of the method: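 Mice with transplantable tumors; drug vs vehicle groups; endpoint survival or tumor size; value = T/C.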

[1] = dose: 12.5 mg/kg/injection, schedule: Q01DX009 (ip), vehicle: Klucel (hydroxypropylcellulose) (HPC)
[2] = dose: 25.0 mg/kg/injection, schedule: Q01DX009 (ip), vehicle: Klucel (hydroxypropylcellulose) (HPC)
[3] = dose: 25.0 mg/kg/injection, schedule: Q01DX009 (ip), vehicle: saline with Tween-80
[4] = dose: 100.0 mg/kg/injection, schedule: Q01DX009 (ip), vehicle: saline with Tween-80
[5] = dose: 1.56 mg/kg/injection, schedule: Q01DX009 (ip), vehicle: Klucel (hydroxypropylcellulose) (HPC)
[6] = dose: 3.12 mg/kg/injection, schedule: Q01DX009 (ip), vehicle: Klucel (hydroxypropylcellulose) (HPC)
[7] = dose: 6.25 mg/kg/injection, schedule: Q01DX009 (ip), vehicle: Klucel (hydroxypropylcellulose) (HPC)
[8] = dose: 400.0 mg/kg/injection, schedule: Q01DX009 (ip), vehicle: saline with Tween-80
[9] = dose: 200.0 mg/kg/injection, schedule: Q01DX009 (ip), vehicle: saline with Tween-80

Measured: T/C

CCOC(=O)/C=C(\CBr)OC
inactive: [1] 105 % of control | [2] 93 % of control

O=c1cnn(C2OC(CO)C(O)C2O)c(=S)[nH]1 (stereo not given)
inactive: dose: 100.0 mg/kg/injection, schedule: Q04DX003 (ip), vehicle: saline with Tween-80 93 % of control | dose: 200.0 mg/kg/injection, schedule: Q04DX003 (ip), vehicle: saline with Tween-80 95 % of control | dose: 400.0 mg/kg/injection, schedule: Q04DX003 (ip), vehicle: saline with Tween-80 88 % of control

Cn1ccc(=Nc2ccc(NC(=O)c3ccc(N=c4ccn(C)c5ccc([N+](=O)[O-])cc45)cc3)cc2)cc1
inactive: dose: 3.13 mg/kg/injection, schedule: Q01DX009 (ip), vehicle: other 101 % of control | dose: 6.25 mg/kg/injection, schedule: Q01DX009 (ip), vehicle: other 101 % of control | dose: 12.5 mg/kg/injection, schedule: Q01DX009 (ip), vehicle: other 100 % of control | dose: 25.0 mg/kg/injection, schedule: Q01DX009 (ip), vehicle: other 97 % of control

O=S(=O)(Nc1cccc(C(F)(F)F)c1)c1ccccc1
inactive: [3] 108 % of control | dose: 50.0 mg/kg/injection, schedule: Q01DX009 (ip), vehicle: saline with Tween-80 101 % of control | [4] 97 % of control

Cc1cc(C)c(OCC2CO2)c(C)c1 (stereo not given)
inactive: dose: 100.0 mg/kg/injection, schedule: Q01DX009 (ip), vehicle: Klucel (hydroxypropylcellulose) (HPC) 103 % of control | dose: 200.0 mg/kg/injection, schedule: Q01DX009 (ip), vehicle: Klucel (hydroxypropylcellulose) (HPC) 96 % of control | dose: 400.0 mg/kg/injection, schedule: Q01DX009 (ip), vehicle: Klucel (hydroxypropylcellulose) (HPC) 90 % of control

O[C@H](c1cc(C(F)(F)F)nc2c(C(F)(F)F)cccc12)[C@@H]1CCCCN1
inactive: dose: 0.78 mg/kg/injection, schedule: Q01DX009 (ip), vehicle: Klucel (hydroxypropylcellulose) (HPC) 97 % of control | [5] 104 % of control | [6] 113 % of control | dose: 4.5 mg/kg/injection, schedule: Q04DX003 (ip), vehicle: Klucel (hydroxypropylcellulose) (HPC) 113 % of control | [7] 90 % of control | dose: 9.0 mg/kg/injection, schedule: Q04DX003 (ip), vehicle: Klucel (hydroxypropylcellulose) (HPC) 100 % of control

[Cl][Pt+2][Cl].[NH-]c1ccccc1[NH-]
inactive: dose: 0.63 mg/kg/injection, schedule: Q01DX009 (ip), vehicle: saline with Tween-80 117 % of control | dose: 1.25 mg/kg/injection, schedule: Q01DX009 (ip), vehicle: Klucel (hydroxypropylcellulose) (HPC) 100 % of control and 123 % of control | dose: 1.25 mg/kg/injection, schedule: Q01DX009 (ip), vehicle: saline with Tween-80 117 % of control | dose: 2.5 mg/kg/injection, schedule: Q01DX009 (ip), vehicle: Klucel (hydroxypropylcellulose) (HPC) 92 % of control | dose: 2.5 mg/kg/injection, schedule: Q01DX009 (ip), vehicle: saline with Tween-80 122 % of control | dose: 10.0 mg/kg/injection, schedule: Q01DX009 (ip), vehicle: saline with Tween-80 92 % of control

CC(C)CN(CC(C)C)c1ccc([N+](=O)[O-])cc1[N+](=O)[O-]
inactive: dose: 6.25 mg/kg/injection, schedule: Q01DX009 (ip), vehicle: saline with Tween-80 105 % of control | dose: 12.5 mg/kg/injection, schedule: Q01DX009 (ip), vehicle: saline with Tween-80 107 % of control | [3] 87 % of control and 114 % of control | [4] 105 % of control | [8] 86 % of control

ClCCN=Cc1ccc(Cl)cc1
inactive: [4] 98 % of control | [9] 95 % of control | [8] 93 % of control

CS(=O)(=O)ON1C(=O)c2ccccc2C1=O
inactive: [5] 100 % of control | [6] 98 % of control | [7] 94 % of control

O=C1N(Br)C(=O)C(c2ccc(Cl)cc2)(c2ccc(Cl)cc2)N1Br
inactive: [7] 103 % of control | [1] 98 % of control | [2] 100 % of control | dose: 50.0 mg/kg/injection, schedule: Q01DX009 (ip), vehicle: Klucel (hydroxypropylcellulose) (HPC) 88 % of control

NC(=O)C(Cl)(Cl)Cl
inactive: [4] 105 % of control | [9] 96 % of control | [8] 98 % of control

From PubChem BioAssay AID192 (DTP/NCI, 2004)
